{"source": "patent US7517657B2", "about": "“Peptides for detecting anti-double stranded DNA antibody and uses thereof” (Albert Einstein College of Medicine of Yeshiva University, priority 1995, dated 2009)", "key": {"R4A binding to dsDNA": {"tested_on": "R4A binding to dsDNA", "experiment": "Peptide inhibition of R4A binding to dsDNA by ELISA", "parameters": "species or system mouse", "conditions": "fluid phase inhibitor, FIG. 3, FIG. 4", "procedure": "FIG. 3 depicts peptide inhibition of R4A (1 μg/ml) binding to calf thymus double stranded DNA by Enzyme Linked ImmunoSorbent Assay.\nFIG. 4 sets forth a graph representing DWEYS (L and D peptides) (SEQ ID NO:2) inhibition of R4A binding to dsDNA. IMMULON® II plates were coated overnight with 100 μg/ml salmon sperm dsDNA. R4A at a final concentration of 5 μg/ml was incubated at varying concentrations of L or D DWEYS (SEQ ID NO:2) and transferred to the plate precoated with dsDNA. After a 2-hr incubation at 37° C., the plates were washed, and alkaline phosphotase-linked goat anti-mouse IgG2b antibody was added for 1 hour at 37° C. OD after addition of substrate was monitored at 405 nm."}, "[1]": {"tested_on": "production of anti-dsDNA antibodies", "experiment": "Immunization of nonautoimmune BALB/c mice with peptide in complete Freund's adjuvant", "format": "in vivo", "conditions": "unpublished work", "text": "It is also noteworthy that both the R4A and 52b3 peptides have aromatic residues, tryptophan and tyrosine. […] This apparent difference in specificity is consistent with the finding that they bind distinct peptides. It is also noteworthy that both the R4A and 52b3 consensus motifs have aromatic residues, tryptophan and tyrosine. It is tempting to speculate that the negatively charged aspartate and glutamate residues are analogous to phosphate groups, the aromatic tryptophan residues are analogous to the pentose sugar backbone, and the tyrosine and serine residues are analogous to the hydroxyl groups attached to the pentose moiety in the DNA molecule, thus explaining why these peptides are mimics of DNA. One potential utility of identifying peptide mimotopes for dsDNA is to try to determine if the actual eliciting antigen for production of these antibodies or target antigen for deposition in kidneys might be a protein molecule. […] It is interesting to speculate whether the murine homolog of chicken collagen XIV also has a splice variant containing the same or highly homologous peptide sequence that would be recognized by the R4A antibody."}}}
{"substance": "Asp-Trp-Glu-Tyr-Ser (DWEYS; printed: Asp-Trp-Glu-Tyr-Ser)", "values": [{"measurement": "Inhibition of R4A binding to dsDNA", "setting": "R4A binding to dsDNA", "result": "inhibited dsDNA binding by the appropriate antibody only"}, {"measurement": "Production of anti-dsDNA antibodies after immunization", "setting": "[1]", "result": "leads to production of anti-dsDNA antibodies"}]}
